1 compound from US10729768B2, “Combination of anti-CD20 antibody and PI3 kinase selective inhibitor” (TG Therapeutics, Inc., priority 2012, dated 2020) can be followed below.

For data set [1], the system named is U266B1, DB, Raji, and Daudi cells. Nature of the data set: cell cycle assay, flow cytometry, cell-lines tested. It is filed as cell-based. The settings on record: 72 hrs. The method, then:
A cell cycle assay reagent (Millipore) was used to determine the effect of S-isomer of a compound of formula A, UBX, and combinations thereof on the cell cycle in cancerous cells. In these experiments, cells were plated in a 6-well plate at a concentration of 0.5×10^6 cells/ml, treated with either S-isomer of a compound of formula A (10 μM to 0.1 μM), UBX (100 μg/ml to 0.1 μg/ml), or UBX with S-isomer of a compound of formula A at 1000 nM, and incubated for 72 hrs at 37° C. and 5% CO2. The cells were transferred to microfuge tubes to receive 50 μl of cell cycle reagent and incubated for 30 minutes at RT away from light. Cells were then diluted with 300-400 μl PBS, and a minimum of 10,000 events were acquired on a Guava® easyCyte™ flow cytometer. The data was analyzed with Express Pro software and the percentage of the cell population in different cell cycle stages with respect to control was presented in histograms.
(A flow cytometer gives signals particle by particle.)

A further data set has as its system B-cells. Nature of the data set: cytotoxicity to B-cells. It is filed as cell-based. The conditions noted are these: concentrations up to 10 μM.

On to `CC(C)Oc1ccc(-c2nn([C@@H](C)c3oc4ccc(F)cc4c(=O)c3-c3cccc(F)c3)c3ncnc(N)c23)cc1F` [S-isomer, (S)-2-(1-(4-amino-3-(3-fluoro-4-isopropoxyphenyl)-1H-pyrazolo[3,4-d]pyrimidin-1-yl)ethyl)-6-fluoro-3-(3-fluorophenyl)-4H-chromen-4-one], for which, in data set [1], the cell cycle effect result was “dose-dependent G2/M arrest”. Moreover, the “cytotoxic to B-cells” value in the data set on B-cells is on record as “not cytotoxic”.
